Structures are written as SMILES.

Drawing on BindingDB's records for doi:10.1046/j.1471-4159.1998.71062558.x (F. Hoffmann-La Roche, 1998), this text covers Ki for eleven compounds.

In the test the target is Metabotropic glutamate receptor 2 (Homo sapiens, UniProt Q14416).
Chain of Metabotropic glutamate receptor 2 (Q14416 whole entry): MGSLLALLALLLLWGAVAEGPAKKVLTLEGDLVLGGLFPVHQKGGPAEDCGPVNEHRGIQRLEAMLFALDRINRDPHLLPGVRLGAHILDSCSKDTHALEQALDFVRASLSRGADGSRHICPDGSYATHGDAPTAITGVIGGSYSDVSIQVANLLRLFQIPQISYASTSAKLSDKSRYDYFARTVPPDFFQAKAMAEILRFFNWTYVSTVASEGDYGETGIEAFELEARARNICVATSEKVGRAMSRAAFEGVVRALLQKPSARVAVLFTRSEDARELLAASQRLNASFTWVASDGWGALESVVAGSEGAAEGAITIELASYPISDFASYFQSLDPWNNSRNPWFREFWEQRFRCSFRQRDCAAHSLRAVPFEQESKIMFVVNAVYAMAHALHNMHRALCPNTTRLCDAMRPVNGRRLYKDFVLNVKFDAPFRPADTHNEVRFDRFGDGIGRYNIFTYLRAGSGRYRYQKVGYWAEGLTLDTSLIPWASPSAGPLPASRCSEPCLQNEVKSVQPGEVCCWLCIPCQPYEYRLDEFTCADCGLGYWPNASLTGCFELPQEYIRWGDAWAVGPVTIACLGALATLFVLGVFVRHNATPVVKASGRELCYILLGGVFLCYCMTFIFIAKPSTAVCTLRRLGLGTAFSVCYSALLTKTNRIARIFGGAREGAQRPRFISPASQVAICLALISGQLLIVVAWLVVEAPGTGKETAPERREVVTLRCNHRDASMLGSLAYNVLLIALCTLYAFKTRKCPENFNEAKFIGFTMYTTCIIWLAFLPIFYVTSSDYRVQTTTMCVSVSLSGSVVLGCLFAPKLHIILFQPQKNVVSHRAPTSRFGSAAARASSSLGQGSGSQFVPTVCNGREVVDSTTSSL
Take `N[C@@H](CCP(=O)(O)O)C(=O)O`: the affinity corresponds to a Ki of 680 nM.
With `CC(N)(C(=O)O)c1ccc(P(=O)(O)O)cc1` (stereo unspecified) the figure was 260 nM; with `C[C@@](N)(C(=O)O)c1ccc(C(=O)O)cc1` (racemic), 334 nM; with `N[C@@]1(C(=O)O)CC[C@H](C(=O)O)C1` [1S, 3R-ACPD], 9.33 nM.
In the case of `N[C@@H](Cn1oc(=O)[nH]c1=O)C(=O)O` [2-amino-3-(3,5-dioxo[1,2,4]oxadiazolidin-2-yl)propionic acid] it was 178 nM; in that of `N[C@H](CP(=O)(O)O)C(=O)O` [CAS_23052-80-4], 263 nM.
On to `CCC(N)(CCC(=O)O)C(=O)O` (stereo unspecified) [CAS_5311079], for which the Ki (commonly a measure of affinity in units of concentration, obtained from inhibition or displacement) came to 376 nM.
In the case of `NC(Cn1cnc2c(=O)[nH]c(=O)[nH]c21)(C(=O)O)C1CC1C(=O)O` (stereo unspecified) [CAS_5311260] it was 0.078 nM.
In the case of `N[C@H](C(=O)O)C1[C@@H](C(=O)O)[C@@H]1C(=O)O` (stereo partly specified) [DCG-IV] it was 0.368 nM; in that of `N[C@H](C(=O)O)[C@H]1C[C@H]1C(=O)O` [L-CCG-IV], 0.378 nM.
Turning to `C[C@](N)(C(=O)O)C1C[C@@H]1C(=O)O` (stereo partly specified) [MCCG-I], the affinity corresponds to a Ki of 69 nM.
